For 19 molecules, EC50 results are on record in patent US9656945B2, “3-acyl-ingenols II” (LEO LABORATORIES LIMITED, priority 2010, dated 2017).

Holding throughout (type): cell-based
Assay [1] deals with Primary human epidermal keratinocytes, HeKa. Description: HeKa cytokine release (IL-8) assay. As to conditions: 6 h, read-out: HeKa cytokine release (IL-8) Rel EC50 range. The method, then:
Primary human epidermal keratinocytes, HeKa, were seeded (10.000 cells/well) in 96-well plates the day before the assay. Test compounds were diluted in DMSO (dimethyl sulfoxide) and further diluted in assay medium and pipetted into wells of 96 well-plates containing HeKa cells. The plates were incubated for 6 h at 37° C. in humidified air with 5% CO2. Plates are centrifuged briefly to spin down cells at 4° C., the supernatant was removed and analysed by Meso Scale Discovery (MSD) 4-spot cytokine assay (Pro-inflammatory II Ultra Sensitive kit, MSD, MD, USA). The MSD assay employs a sandwich immunoassay format where capture antibodies were coated in a patterned array on the bottom of the wells of a 4-Spot-Multi-MSD plate. Standard samples were incubated in the MULTI-SPOT plates as well, and the cytokine (IL-8) binds to its corresponding capture antibody spot. The cytokine level was quantitated on a SECTOR™ Imager using a cytokine-specific Detection Antibody labelled with MSD SULFO-TAG™ reagent.
Test compound titration curves were fitted to a four-parameter sigmoidal curve after normalizing the effect of the test compound to the effect of the positive control (1.5×10^−7 M PEP0005). Rel EC50 denotes the concentration of test compound producing an effect that is midway between the fitted top and bottom.

Assay [2] has as its system PMN's (polymorphonuclear leukocytes). The assay can be described thus: Neutrophil oxidative burst assay. As to conditions: Leukocyte, 40 min, read-out: Neutrophil oxidative burst Rel EC50 range. The method, then: PMN's (polymorphonuclear leukocytes) were isolated and purified from fresh buffy coats by sequential sedimentation, density centrifugation and lysis of contaminating erythrocytes. Buffy coats were incubated with 2% methocel for 30-45 min to differentially sediment red blood cells. The leukocyte-rich supernatant was transferred to lymphoprep tubes to remove mononuclear cells by density centrifugation (400×g, 30 min). The pellet was resuspended and any remaining erythrocytes lysed using 0.2% NaCl for 30 sec before restoring isotonicity by the addition of 1.2% NaCl. This step was repeated until the cell pellet appears relatively free of red blood cells. Cells were resuspended in DPBS (Dulbecco's Phosphate Buffered Saline) (w.o. Ca^2+, Mg^2+) and the concentration adjusted to 1.4×10^6 cells/ml in HBSS (Hanks Balanced Salt solution) (w Ca^2+, Mg^2+) containing 0.1% BSA (Bovine Serum Albumin) and 5 mM glucose just prior to assay initiation. Titrated reference and test compounds were pre-mixed with HE (Hydroethidine) (10 μM final assay concentration) before addition to 96-well plates containing 2.5×10^5 cells. Following 40 min incubation at RT, changes in the respiratory burst was estimated by measuring fluorescence at 579 nm (excitation: 485 nm) using an Envision plate reader.
Test compound titration curves were fitted to a four-parameter sigmoidal curve after normalizing the effect of the test compound to the effect of the positive control (5×10^−7 M PEP0005). Rel EC50 denotes the concentration of test compound producing an effect that is midway between the fitted top and bottom. Abs EC50 is the concentration of test compound that provokes a response corresponding to 50% of the maximal effect associated with the positive control (5×10^−7 M PEP0005).

In assay [3] the test system is HeLa cells (ATCC CCL-002). The assay can be described thus: Necrosis assay. As to conditions: Homo sapiens, 0.5 h, read-out: HeLa necrosis EC50 range. The method, then:
HeLa cells (ATCC CCL-002) were grown in minimal essential medium (Invitrogen catalog no. 42360) containing 10% fetal bovine serum, 100 IU/ml penicillin and 100 μg/ml streptomycin. 4,000-6,000 cells were seeded into 96-well black ViewPlates-plates, clear bottom, (Perkin Elmer) in 100 μl medium and incubated overnight. Compounds were dissolved and pre-diluted in DMSO in 96-well polypropylene plates (Greiner) in a concentration range of 15 μM to 600 μM. At the time of the experiment cell plates were placed on heating blocks at 37° C., medium was removed and 40 μl fresh, pre-warmed medium was added per well. Cells were incubated for 15 min before addition of compounds. In parallel, 3 μl of compounds were diluted with 197 μl growth medium on a Tecan freedom-EVO pipetting station using 250 μl/s pipetting speed, in order to ensure effective mixing of the highly concentrated compound solutions with the aqueous phase. These pre-dilution plates were then equilibrated on heating blocks at 37° C. for 10 min. 80 μl pre-diluted compound were transferred manually to the corresponding wells containing HeLa cells yielding compound concentrations of 10 μM to 400 μM. Control conditions were 1% DMSO in growth medium (100% viability) and 400 μM ingenol mebutate in growth medium (0% viability). Plates were incubated on the heating blocks at 37° C. for 30 min. At the end of the incubation 10 μl PrestoBlue reagent (Invitrogen) were added to each well, plates were sealed with black seal, followed by incubation at 37° C. for 10 min with gentle shaking (150 rpm). Subsequently, plates were placed at room temperature for 20-30 min. Plates were read immediately after on an Envision Fluorescence reader (Perkin Elmer) with excitation at 535 nm and emission at 630 nm. Test compound titration curves were fitted to a four-parameter sigmoidal curve after normalizing the effect of the test compound to the effect of the positive control (4 10^−4 M PEP0005/ingenol mebutate). AbsEC50 denotes the concentration of test compound producing 50% effect.

As to `CC1=C[C@]23C(=O)[C@@H](C=C(CO)[C@@H](O)[C@]2(O)[C@H]1OC(=O)C1CCCCC1)[C@H]1[C@@H](C[C@H]3C)C1(C)C` [Compound 302, Ingenol 3-(cyclohexanecarboxylate)], the values for the EC50 in assay [1], in assay [2] and in assay [3] were 20 to 100 nM, under 20 nM and 150000 to 350000 nM, respectively.
For `COC(=O)C1(C(=O)O[C@H]2C(C)=C[C@]34C(=O)[C@@H](C=C(CO)[C@@H](O)[C@]23O)[C@H]2[C@@H](C[C@H]4C)C2(C)C)CC1` [Compound 306, Ingenol 3-(1-methoxycarbonyl-cyclopropylcarboxylate)] the same measures were over 100 nM, 20 to 100 nM and over 350000 nM.
Taken in the same sequence, the figures for `CC1=C[C@]23C(=O)[C@@H](C=C(CO)[C@@H](O)[C@]2(O)[C@H]1OC(=O)C12C[C@@H]4CC1C[C@@H](C4)C2)[C@H]1[C@@H](C[C@H]3C)C1(C)C` [Compound 307, Ingenol 3-(noradamantane-3-carboxylate)] were under 20 nM, under 20 nM and 150000 to 350000 nM.
For `CC1=C[C@]23C(=O)[C@@H](C=C(CO)[C@@H](O)[C@]2(O)[C@H]1OC(=O)C1(C)CCCCC1)[C@H]1[C@@H](C[C@H]3C)C1(C)C` [Compound 308, Ingenol 3-(1-methyl-cyclohexanecarboxylate)] the same measures were under 20 nM, under 20 nM and under 150000 nM.
Consider `CC1=C[C@]23C(=O)[C@@H](C=C(CO)[C@@H](O)[C@]2(O)[C@H]1OC(=O)c1ccc(F)cc1)[C@H]1[C@@H](C[C@H]3C)C1(C)C` [Compound 311, Ingenol 3-(4-fluoro-benzoate)], for which the EC50 was under 20 nM in assay [1], under 20 nM in assay [2] and under 150000 nM in assay [3].
For the molecule `COc1ccccc1C(=O)O[C@H]1C(C)=C[C@]23C(=O)[C@@H](C=C(CO)[C@@H](O)[C@]12O)[C@H]1[C@@H](C[C@H]3C)C1(C)C` [Compound 312, Ingenol 3-(2-methoxy-benzoate)], the values for the EC50 in assay [1], in assay [2] and in assay [3] were 20 to 100 nM, under 20 nM and under 150000 nM, respectively.
Consider `COc1ccc(C(=O)O[C@H]2C(C)=C[C@]34C(=O)[C@@H](C=C(CO)[C@@H](O)[C@]23O)[C@H]2[C@@H](C[C@H]4C)C2(C)C)cc1` [Compound 313, Ingenol 3-(4-methoxy-benzoate)], for which the EC50 in assay [1] is under 20 nM; in assay [2], under 20 nM; in assay [3] it was under 150000 nM.
For the molecule `CC1=C[C@]23C(=O)[C@@H](C=C(CO)[C@@H](O)[C@]2(O)[C@H]1OC(=O)c1ccc(F)cc1F)[C@H]1[C@@H](C[C@H]3C)C1(C)C` [Compound 314, Ingenol 3-(2,4-difluoro-benzoate)], the EC50 in assay [1] was under 20 nM; in assay [2], under 20 nM; in assay [3] it was under 150000 nM.
As for `CC1=C[C@]23C(=O)[C@@H](C=C(CO)[C@@H](O)[C@]2(O)[C@H]1OC(=O)c1c(C)cccc1C)[C@H]1[C@@H](C[C@H]3C)C1(C)C` [Compound 315, Ingenol 3-(2,6-dimethyl-benzoate)], the EC50 was 20 to 100 nM in assay [1], under 20 nM in assay [2] and under 150000 nM in assay [3].
For `COc1cccc(OC)c1C(=O)O[C@H]1C(C)=C[C@]23C(=O)[C@@H](C=C(CO)[C@@H](O)[C@]12O)[C@H]1[C@@H](C[C@H]3C)C1(C)C` [Compound 316, Ingenol 3-(2,6-dimethoxy-benzoate)] the same measures were 20 to 100 nM, 20 to 100 nM and 150000 to 350000 nM.
In the case of `CC1=C[C@]23C(=O)[C@@H](C=C(CO)[C@@H](O)[C@]2(O)[C@H]1OC(=O)c1cccc2ccccc12)[C@H]1[C@@H](C[C@H]3C)C1(C)C` [Compound 319, Ingenol 3-(naphthalene-1-carboxylate)], the EC50 in assay [1] is under 20 nM; in assay [2], under 20 nM; in assay [3], under 150000 nM.
Regarding `CC1=C[C@]23C(=O)[C@@H](C=C(CO)[C@@H](O)[C@]2(O)[C@H]1OC(=O)c1ccccc1-c1ccccc1)[C@H]1[C@@H](C[C@H]3C)C1(C)C` [Compound 320, Ingenol 3-(2-phenyl-benzoate)], the EC50 in assay [1] is under 20 nM; in assay [2], under 20 nM; in assay [3], under 150000 nM.
For `CC1=C[C@]23C(=O)[C@@H](C=C(CO)[C@@H](O)[C@]2(O)[C@H]1OC(=O)c1ccccc1Br)[C@H]1[C@@H](C[C@H]3C)C1(C)C` [Compound 321, Ingenol 3-(2-bromo-benzoate)], the EC50 in assay [1] is under 20 nM; in assay [2], under 20 nM; in assay [3], under 150000 nM.
For the molecule `CC1=C[C@]23C(=O)[C@@H](C=C(CO)[C@@H](O)[C@]2(O)[C@H]1OC(=O)c1ccccc1Oc1ccccc1)[C@H]1[C@@H](C[C@H]3C)C1(C)C` [Compound 322, Ingenol 3-(2-phenoxy-benzoate)], the figures for the EC50 in assay [1], in assay [2] and in assay [3] were under 20 nM, under 20 nM and under 150000 nM, respectively.
For the molecule `CC1=C[C@]23C(=O)[C@@H](C=C(CO)[C@@H](O)[C@]2(O)[C@H]1OC(=O)c1ccccc1C(C)C)[C@H]1[C@@H](C[C@H]3C)C1(C)C` [Compound 323, Ingenol 3-(2-isopropyl-benzoate)], the EC50 in assay [1] is under 20 nM; in assay [2] it was under 20 nM; in assay [3], under 150000 nM.
Turning to `C=CCOc1cccc(C)c1C(=O)O[C@H]1C(C)=C[C@]23C(=O)[C@@H](C=C(CO)[C@@H](O)[C@]12O)[C@H]1[C@@H](C[C@H]3C)C1(C)C` [Compound 326, Ingenol 3-(2-allyloxy-6-methyl-benzoate)], the EC50 in assay [2] was under 20 nM; in assay [3], under 150000 nM.
Taken in the same sequence, the figures for `CC1=C[C@]23C(=O)[C@@H](C=C(CO)[C@@H](O)[C@]2(O)[C@H]1OC(=O)c1c(C)cccc1O)[C@H]1[C@@H](C[C@H]3C)C1(C)C` [Compound 327, Ingenol 3-(2-hydroxy-6-methyl-benzoate)] were under 20 nM and 150000 to 350000 nM.
Taken in the same sequence, the figures for `CC1=C[C@]23C(=O)[C@@H](C=C(CO)[C@@H](O)[C@]2(O)[C@H]1OC(=O)c1c(C)cccc1Cl)[C@H]1[C@@H](C[C@H]3C)C1(C)C` [Compound 328, Ingenol 3-(2-chloro-6-methyl-benzoate)] were under 20 nM and under 150000 nM.
Taken in the same sequence, the figures for `COc1cc(C)c(C(=O)O[C@H]2C(C)=C[C@]34C(=O)[C@@H](C=C(CO)[C@@H](O)[C@]23O)[C@H]2[C@@H](C[C@H]4C)C2(C)C)c(OC)c1` [Compound 329, Ingenol 3-(2,4-dimethoxy-6-methyl-benzoate)] were under 20 nM and under 150000 nM.

As usually defined, the EC50 is the midpoint of the concentration-response curve.
